The source of these data is patent US6420563B1, “Small molecule modulators of G protein-coupled receptor six” (Arena Pharmaceuticals, Inc., priority 1998, dated 2002).

Data set [1] in a line: Startle reflex in non-food deprived rats, oral administration. Type of data set: in vivo, rat. The note with it: […] prior to testing, 12 db pre-pulse then 120 db pulse. On the procedure:
As further evidence of this mild sedative activity, animals were measured to determine their startle reflexes. In this assay, ARE112 was orally administered in non-food deprived rats 4.5 hours prior to testing. Animals were subjected to a pre-pulse of 12 db followed by a 120 db pulse and subsequently measured for the height in which the animals jumped.

In data set [2] the target is T1, GPR6 (Homo sapiens, UniProt P46095).
T1 construct: expressed in transfected cells; 293 cells are used elsewhere
T1 sequence (P46095 whole entry): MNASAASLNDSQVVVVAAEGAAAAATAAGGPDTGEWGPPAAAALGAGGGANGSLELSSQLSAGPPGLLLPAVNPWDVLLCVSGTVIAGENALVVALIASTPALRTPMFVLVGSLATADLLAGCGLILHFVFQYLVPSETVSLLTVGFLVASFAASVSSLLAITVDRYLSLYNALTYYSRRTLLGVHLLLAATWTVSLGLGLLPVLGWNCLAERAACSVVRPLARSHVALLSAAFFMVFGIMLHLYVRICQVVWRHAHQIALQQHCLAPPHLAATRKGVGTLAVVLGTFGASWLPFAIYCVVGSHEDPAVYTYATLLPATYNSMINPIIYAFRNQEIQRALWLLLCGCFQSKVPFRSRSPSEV
Put plainly: membrane-based cyclic AMP confirmation assay (Example 4C). Type of data set: biochemical. Summed up:
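Membranes from stably transfected cells (0.60 mg/ml protein, 30 μg/well) in 20 mM HEPES pH 7.4, 100 mM NaCl, 10 mM MgCl2 were incubated 30 min at room temperature with compound at 12 μM final. cAMP then measured by Flash Plate adenylyl cyclase detection after 2-20 h, scintillation counting.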

Data set [3] in a line: Basal food/water intake and body weight in non-food deprived rats, IP administration. It is filed as in vivo, rat. The conditions noted are these: for food consumed over a period of 4 hrs: dark cycle, vehicle 9 g. Here is the method: In this test, animals were not deprived of food but were instead observed for normal activity.
Animals were administered ARE112 at 0, 6.75, 13.5, 27 and 54 mg/kg, IP 30 min prior to the beginning of their dark cycle (i.e. 6:30 pm) and were then exposed to standard rat chow pellets (i.e. 30 min after compound administration) and observed for a period of 15.5 hr post administration. […] For example, the vehicle treated animals consumed 9 g of food over a period of 4 hrs, whereas animals treated with dose of 13.5 mg/kg and 54 mg/kg consumed less than half this amount over this same period (4 and 2 g of food, respectively). […] (See, FIGS. 6B and 6C).

Data set [4] has as its target T2, GPR6:Gsα-Fusion Protein (Homo sapiens, UniProt P46095).
T2 construct: expressed in transfected cells
Put plainly: [35S]GTPγS membrane binding assay (Example 4A). It is filed as biochemical. Summed up: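 Membranes from stable 293 cells expressing the fusion protein were pre-incubated 5-10 min at RT with compounds (10 μM final) in GDP buffer. [35S]GTPγS (0.6 nM as added) was then bound for 60 min at RT and counted after centrifugation. Inverse agonism was scored as reduced receptor-driven GTPγS binding.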
A general note: GTPγS resists hydrolysis and so accumulates on activated G proteins.

Values joined by “and” are separate entries in the source; they are usually repeats but may differ in a detail not shown here. Identical values can stand only once. Like-named read-outs stand apart in the source and are kept apart here.

T2 sequence (P46095 with tags, fused parts or gaps): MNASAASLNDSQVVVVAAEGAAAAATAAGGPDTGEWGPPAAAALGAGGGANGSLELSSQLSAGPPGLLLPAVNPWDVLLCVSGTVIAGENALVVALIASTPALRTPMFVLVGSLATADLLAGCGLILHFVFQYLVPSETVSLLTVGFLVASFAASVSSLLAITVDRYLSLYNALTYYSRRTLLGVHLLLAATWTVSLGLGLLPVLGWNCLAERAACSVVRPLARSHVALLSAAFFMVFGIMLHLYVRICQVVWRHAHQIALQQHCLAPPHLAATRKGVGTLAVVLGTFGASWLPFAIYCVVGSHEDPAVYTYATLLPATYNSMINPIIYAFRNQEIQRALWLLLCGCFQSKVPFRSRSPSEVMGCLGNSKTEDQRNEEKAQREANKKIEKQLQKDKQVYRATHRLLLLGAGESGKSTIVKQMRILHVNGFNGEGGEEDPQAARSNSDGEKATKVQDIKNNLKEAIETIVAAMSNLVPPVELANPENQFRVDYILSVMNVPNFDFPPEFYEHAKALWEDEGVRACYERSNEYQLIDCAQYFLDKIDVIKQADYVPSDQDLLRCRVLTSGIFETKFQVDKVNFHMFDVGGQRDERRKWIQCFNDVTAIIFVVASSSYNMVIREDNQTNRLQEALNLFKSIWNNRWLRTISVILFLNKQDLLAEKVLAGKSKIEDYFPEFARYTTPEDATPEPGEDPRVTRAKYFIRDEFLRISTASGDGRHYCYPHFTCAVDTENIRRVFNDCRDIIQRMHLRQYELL

By IC50 is commonly meant the concentration at which inhibition is half-maximal. As for `O=C(N=C1SSC2=NCCN21)c1cccs1` [ARE112, N-(5,6-dihydro-3H-imidazo[2,1-c]-1,2,4-dithiazol-3-ylidene)-thiophen-2-carboxamide], the “startle reflex (height jumped)” value in data set [1] (13.5 mg/kg oral) and in data set [1] (54 mg/kg oral) was “did not jump as high” each time. The IC50 in data set [2] (assay number 1-3 for compound ARE112, read-out: IC50 Values (nM) cAMP) was 88.3 nM and 77.4 nM and 99 nM; in data set [2] (mean +/- standard deviation (number of assays in brackets), read-out: IC50 Values Cyclic AMP Assay Example 4C) it was 100 nM; in data set [4] (mean +/- standard deviation (number of assays in brackets), read-out: IC50 Values GTP Assay Example 4A) it was 420 nM; in data set [4] (representative IC50 curve, assay protocol of Example 4A, read-out: IC50 value against the GPR6 receptor (FIG. 4)), 150 nM. For the same compound, the “food consumed over a period of 4 hrs” value in data set [3] (13.5 mg/kg IP) came to 4 g; in data set [3] (54 mg/kg IP), 2 g. Moreover, the body weight gain result in data set [3] (IP, non-deprived rats) is given as “decrease”. For the same compound, in data set [3] (IP, non-deprived rats), the water intake entry is “decrease”.
